Source: patent US12180207B2 (ARRAY BIOPHARMA INC., priority 2018, dated 2024)

Legend:
[1] = biological target: dephosphorylated FGFR1 (SEQ ID NO: 1, amino acids 458 to 765) (Homo sapiens (Human), UniProt P11362); assay: FGFR enzyme binding assay (HTRF tracer displacement), FGFR1; conditions: 5 nM dephosphorylated FGFR1, average of multiple determinations if made
Outline: (§1)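 Compounds were tested for displacement of a tracer from human FGFR kinase in a time-resolved FRET binding format. After 60 minutes at 22° C, signal was read at two wavelengths and converted to percent of control, normalised between untreated wells and 1 μM reference inhibitor.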

[2] = biological target: phosphorylated FGFR3 (SEQ ID NO: 5, amino acids 449 to 759) (Homo sapiens (Human), UniProt P22607); assay: FGFR enzyme binding assay (HTRF tracer displacement), FGFR3; conditions: 5 nM phosphorylated FGFR3, average of multiple determinations if made
Outline: as §1

[3] = biological target: recombinant human FGFR1 catalytic domain (amino acids 308-731) (Homo sapiens (Human), UniProt P11362); assay: FGFR1 enzyme activity assay (LanthaScreen TR-FRET); type: biochemical; conditions: 20 min incubation at 22° C., average of multiple determinations if made, read-out: FGFR1 Enz FRET IC50
Outline: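 His-tagged FGFR1 kinase domain with 100 nM Alexa Fluor 647-poly-GT peptide and ATP in pH 7.5 HEPES/MgCl2 buffer with 2% DMSO, 20 min at 22 °C. Quenched with EDTA plus 2 nM Eu-PY20 antibody and read after 60 min. IC50 comes from a 4-parameter fit of percent of control.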

[4] = biological target: recombinant human FGFR2 cytoplasmic domain (amino acids 403-822) (Homo sapiens (Human), UniProt P21802); assay: FGFR2 enzyme activity assay (LanthaScreen TR-FRET); type: biochemical; conditions: 15 μM ATP, 20 min incubation at 22° C., average of multiple determinations if made, read-out: FGFR2 Enz FRET IC50
Outline: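 His-tagged FGFR2 cytoplasmic domain ([…]) with 100 nM Alexa Fluor 647-poly-GT peptide and 15 μM ATP in HEPES/MgCl2/Triton buffer, pH 7.5, 2% DMSO, 20 min at 22 °C. EDTA-quenched, Eu-PY20 antibody added, TR-FRET read after 60 min.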

[5] = biological target: recombinant human FGFR3 (amino acids R397-T806) (Homo sapiens (Human), UniProt P22607); assay: FGFR3 enzyme activity assay (LanthaScreen TR-FRET); type: biochemical; conditions: 25 μM ATP, 10 min incubation at 22° C., average of multiple determinations if made, read-out: FGFR3 Enz FRET IC50
Outline: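 GST-HIS6-tagged human FGFR3 (R397-T806) was reacted with 100 nM Alexa Fluor 647-Poly-GT substrate and 25 μM ATP plus compound in HEPES/MgCl2/Triton buffer, pH 7.5, 2% DMSO, for 10 min at 22 °C.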

[6] = biological target: FGFR1 (SEQ ID NO: 1, amino acids 458-765) (Homo sapiens (Human), UniProt P11362); assay: LC/MS FGFR1 kobs assay (covalent protein modification); type: binding; conditions: 500 nM FGFR1, 3 μM compound
Method: The LC/MS FGFR1 and FGFR3 kobs assays were conducted as follows. […] At each time point, the reaction was quenched with 20 μL of 0.4% formic acid. The extent of protein modification by each compound was determined by LC/MS on an Agilent Technologies 6520 Q-TOF LC/MS. Protein signals were then automatically deconvoluted using Agilent Masshunter software. Deconvoluted mass signals were exported to Tibco Spotfire data analysis program for further processing and normalization.
Data analysis included five steps. First, the signals for the “DMSO Controls” were analyzed to determine the percent of signal associated with unmodified FGFR1 or FGFR3 at each time point. Next, the percent of the signal associated with the covalent modification was determined. Third, the average nonmodified “DMSO Control” signal was used to normalize the modified protein signals at each time point. The percent of unmodified protein was fit to an exponential decay model where A0 is the Percent Unmodified at the start of the reaction, and kobs is the observed rate constant over the time period.

[7] = biological target: FGFR3 (SEQ ID NO: 5, amino acids 449-759) (Homo sapiens (Human), UniProt P22607); assay: LC/MS FGFR3 kobs assay (covalent protein modification); type: binding; conditions: 500 nM FGFR3, 3 μM compound
Outline: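 Covalent modification of FGFR1 (aa 458-765) or FGFR3 (aa 449-759) followed over time; reactions quenched with 0.4% formic acid and analysed by Q-TOF LC/MS after deconvolution. Percent unmodified protein, normalized to DMSO controls, fit to exponential decay to give kobs; averaged where repeated.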

[8] = biological target: HEK-293 cells transfected with dox-inducible human wild type FGFR1 (Homo sapiens (Human), UniProt P11362); assay: FGFR1 pERK cell assay; type: cell-based; conditions: HEK-293 dox-inducible FGFR1, 1 hour compound, 100 ng/ml FGF-acidic; maximum concentration 5 μM
Method: FGFR1 pERK Cell Assay: • HEK-293 cells transfected with doxycycline(dox)-inducible human wild type FGFR1 (SEQ ID NO: 1) were plated in a collagen or poly-D-lysine coated 96 well flat bottom plates at 4×10^5 cells/well in complete Dulbecco's Modified Eagle Medium (DMEM) containing 10% FBS and 1 μg/ml doxycycline and allowed to attach for 24 h at 37° C., 5% CO2. Cells were treated with compound using 1:3 serial dilutions with a maximum final concentration of 5 μM. Compound was incubated on cells for 1 hour at 37° C., 5% CO2. Cells were then stimulated with a final concentration of 100 ng/ml human FGF-acidic (R&D Systems Cat number 232-FA/CF) for 5 minutes at 37° C., 5% CO2. Medium was removed, and cells were lysed with lysis buffer containing phosphatase and protease inhibitors. Phospho ERK1/2 was measured using the Meso Scale Discovery sandwich assay (Meso Scale Discovery cat. no. K151DWD). The assay captures phospho ERK1/2 and detects with a sulfo-tagged total ERK1/2 antibody. The chemiluminescent signal was read on the Sector Imager Plate reader. 100 POC was determined using no test compound and 0 POC was determined using a control compound. The POC values were fit to a 4-parameter logistic curve as a function of the concentration of the compound, and the IC50 value is the point where the curve crosses 50 POC.

Sequence of recombinant human FGFR2 cytoplasmic domain (amino acids 403-822) (P21802 402-821): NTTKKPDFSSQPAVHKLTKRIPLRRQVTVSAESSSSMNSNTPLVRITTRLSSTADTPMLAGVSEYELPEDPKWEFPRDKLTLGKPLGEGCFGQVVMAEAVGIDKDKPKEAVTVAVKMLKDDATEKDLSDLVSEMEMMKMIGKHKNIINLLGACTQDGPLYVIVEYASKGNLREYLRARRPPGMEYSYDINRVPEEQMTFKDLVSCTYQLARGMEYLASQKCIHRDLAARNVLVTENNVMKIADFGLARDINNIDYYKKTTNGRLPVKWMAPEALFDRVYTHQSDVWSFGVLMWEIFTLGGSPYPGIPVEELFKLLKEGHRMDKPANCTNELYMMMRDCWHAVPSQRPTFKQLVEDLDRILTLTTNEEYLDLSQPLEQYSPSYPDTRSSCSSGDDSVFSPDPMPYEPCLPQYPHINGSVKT
Sequence of recombinant human FGFR3 (amino acids R397-T806) (P22607 397-806): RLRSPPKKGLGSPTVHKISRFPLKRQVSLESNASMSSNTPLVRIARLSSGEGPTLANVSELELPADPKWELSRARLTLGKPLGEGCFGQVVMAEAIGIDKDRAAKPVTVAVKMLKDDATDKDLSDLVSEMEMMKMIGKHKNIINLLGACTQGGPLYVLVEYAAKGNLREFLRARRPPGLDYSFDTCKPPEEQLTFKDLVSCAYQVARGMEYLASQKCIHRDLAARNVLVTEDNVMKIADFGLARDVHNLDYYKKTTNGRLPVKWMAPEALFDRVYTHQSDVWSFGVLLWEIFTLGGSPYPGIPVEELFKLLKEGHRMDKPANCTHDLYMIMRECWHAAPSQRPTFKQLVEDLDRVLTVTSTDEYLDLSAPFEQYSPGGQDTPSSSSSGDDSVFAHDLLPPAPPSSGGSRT
Sequence of recombinant human FGFR1 catalytic domain (amino acids 308-731) (P11362 other isoform, or with tags, fused parts or gaps): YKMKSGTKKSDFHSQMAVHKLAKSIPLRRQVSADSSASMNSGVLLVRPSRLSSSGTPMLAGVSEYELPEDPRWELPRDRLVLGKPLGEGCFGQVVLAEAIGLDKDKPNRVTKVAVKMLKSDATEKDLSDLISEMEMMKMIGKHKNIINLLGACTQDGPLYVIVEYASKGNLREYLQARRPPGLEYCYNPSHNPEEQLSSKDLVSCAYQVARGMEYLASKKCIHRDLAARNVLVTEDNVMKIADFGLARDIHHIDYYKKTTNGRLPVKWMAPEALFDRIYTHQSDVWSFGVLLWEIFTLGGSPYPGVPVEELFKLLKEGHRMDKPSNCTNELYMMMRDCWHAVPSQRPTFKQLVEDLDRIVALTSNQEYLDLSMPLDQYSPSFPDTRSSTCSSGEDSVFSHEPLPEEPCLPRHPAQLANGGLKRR
Sequence of dephosphorylated FGFR1 (SEQ ID NO: 1, amino acids 458 to 765) (P11362 458-765): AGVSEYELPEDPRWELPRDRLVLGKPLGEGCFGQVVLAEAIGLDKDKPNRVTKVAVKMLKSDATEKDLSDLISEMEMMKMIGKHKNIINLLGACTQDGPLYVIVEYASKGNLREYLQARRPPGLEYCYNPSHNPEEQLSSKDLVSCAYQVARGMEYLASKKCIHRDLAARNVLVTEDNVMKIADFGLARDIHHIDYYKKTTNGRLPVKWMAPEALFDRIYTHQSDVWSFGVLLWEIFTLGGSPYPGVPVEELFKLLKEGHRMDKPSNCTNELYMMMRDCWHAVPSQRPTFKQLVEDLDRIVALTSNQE
Sequence of FGFR1 (SEQ ID NO: 1, amino acids 458-765) (P11362 458-765): as above
Sequence of FGFR3 (SEQ ID NO: 5, amino acids 449-759) (P22607 449-759): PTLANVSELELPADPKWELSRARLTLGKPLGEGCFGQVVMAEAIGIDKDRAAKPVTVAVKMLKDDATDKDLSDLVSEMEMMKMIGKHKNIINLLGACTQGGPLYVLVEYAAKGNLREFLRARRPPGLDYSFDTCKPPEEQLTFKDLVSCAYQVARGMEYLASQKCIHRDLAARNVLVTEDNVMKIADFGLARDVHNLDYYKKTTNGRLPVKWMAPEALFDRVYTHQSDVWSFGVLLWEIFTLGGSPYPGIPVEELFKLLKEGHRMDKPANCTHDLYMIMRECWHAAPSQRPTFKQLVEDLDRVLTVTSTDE
Sequence of phosphorylated FGFR3 (SEQ ID NO: 5, amino acids 449 to 759) (P22607 449-759): as above
Sequence of HEK-293 cells transfected with dox-inducible human wild type FGFR1 (P11362 22-822): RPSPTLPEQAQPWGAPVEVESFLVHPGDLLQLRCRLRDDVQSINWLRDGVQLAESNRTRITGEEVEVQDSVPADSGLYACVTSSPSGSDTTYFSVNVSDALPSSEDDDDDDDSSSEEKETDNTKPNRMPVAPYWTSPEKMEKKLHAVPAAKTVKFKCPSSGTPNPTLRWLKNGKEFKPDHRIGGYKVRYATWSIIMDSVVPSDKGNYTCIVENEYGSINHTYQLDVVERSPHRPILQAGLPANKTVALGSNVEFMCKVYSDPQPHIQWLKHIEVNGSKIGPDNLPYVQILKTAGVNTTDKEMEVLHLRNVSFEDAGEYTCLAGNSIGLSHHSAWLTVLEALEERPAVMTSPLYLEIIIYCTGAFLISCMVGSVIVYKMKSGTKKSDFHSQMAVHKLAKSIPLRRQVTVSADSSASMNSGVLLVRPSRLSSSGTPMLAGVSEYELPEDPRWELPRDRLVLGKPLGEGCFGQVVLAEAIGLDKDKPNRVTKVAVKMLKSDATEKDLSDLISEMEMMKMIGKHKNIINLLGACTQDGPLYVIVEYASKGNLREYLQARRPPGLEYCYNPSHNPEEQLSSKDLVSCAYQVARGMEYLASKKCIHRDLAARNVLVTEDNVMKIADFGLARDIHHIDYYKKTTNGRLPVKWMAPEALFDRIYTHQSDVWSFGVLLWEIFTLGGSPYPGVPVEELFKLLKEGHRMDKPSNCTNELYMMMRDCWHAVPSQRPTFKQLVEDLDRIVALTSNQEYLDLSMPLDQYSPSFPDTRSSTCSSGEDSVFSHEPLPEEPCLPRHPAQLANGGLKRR

| Compound | IC50 [1] | IC50 [2] | IC50 [3] | IC50 [4] | IC50 [5] | FGFR1 Enz kobs [6] | FGFR3 Enz kobs [7] | IC50 [8] |
| --- | --- | --- | --- | --- | --- | --- | --- | --- |
| C=CC(=O)N1CCC(C(=O)N2CC(n3cc(-c4cc(OC)c5c(C#N)cnn5c4)cn3)C2)CC1 [Example 75, 6-(1-(1-(1-acryloylpiperidine-4-carbonyl)azetidin-3-yl)-1H-pyrazol-4-yl)-4-methoxypyrazolo[1,5-a]pyridine-3-carbonitrile] | 120 nM | 22 nM | 39 nM | 14 nM | 13 nM | 0.00081 min⁻¹ | 0.002 min⁻¹ |  |
| C=CC(=O)N[C@H]1C[C@@H](C(=O)N2CC(n3cc(-c4cc(OC)c5c(C#N)cnn5c4)cn3)C2)C1 [Example 80, N-((1s,3s)-3-(3-(4-(3-cyano-4-methoxypyrazolo[1,5-a]pyridin-6-yl)-1H-pyrazol-1-yl)azetidine-1-carbonyl)cyclobutyl)acryl-amide] | 174 nM | 22 nM | 26 nM | 7 nM | 7 nM | 0.00024 min⁻¹ | 0.00111 min⁻¹ |  |
| C=CC(=O)N1CCN(c2ccc(-c3cc(OC)c4c(C#N)cnn4c3)cc2)CC1 [Example 99, 6-(4-(4-acryloylpiperazin-1-yl)phenyl)-4-methoxypyrazolo[1,5-a]pyridine-3-carbonitrile] | 47 nM | 5 nM | 13 nM | 5 nM | 3 nM | 0.00044 min⁻¹ | 0.00353 min⁻¹ |  |
| C=CC(=O)N1CCC(C(=O)N2CCN(c3ccc(-c4cc(OC)c5c(C#N)cnn5c4)cn3)CC2)CC1 [Example 109, 6-(6-(4-(1-acryloylpiperidine-4-carbonyl)piperazin-1-yl)pyridin-3-yl)-4-methoxypyrazolo[1,5-a]pyridine-3-carbonitrile] | 56 nM | 8 nM | 12 nM | 4 nM | 6 nM | 0.0006 min⁻¹ | 0.00352 min⁻¹ |  |
| C=CC(=O)N1CC[C@@H](C(=O)N2CCN(c3ccc(-c4cc(OC)c5c(C#N)cnn5c4)cn3)CC2)C1 [Example 110, (R)-6-(6-(4-(1-acryloylpyrrolidine-3-carbonyl)piperazin-1-yl)pyridin-3-yl)-4-methoxypyrazolo[1,5-a]pyridine-3-carbonitrile] | 58 nM | 8 nM | 16 nM | 5 nM | 6 nM | 0.00068 min⁻¹ | 0.00626 min⁻¹ |  |
| C=CC(=O)N1CC(C(=O)N2CCN(c3ncc(-c4cc(OC)c5c(C#N)cnn5c4)cn3)CC2)C1 [Example 133, 6-(2-(4-(1-acryloylazetidine-3-carbonyl)piperazin-1-yl)pyrimidin-5-yl)-4-methoxypyrazolo[1,5-a]pyridine-3-carbonitrile] | 2930 nM | 160 nM | 119 nM | 63 nM | 264 nM | 0.00274 min⁻¹ | 0.02206 min⁻¹ |  |
| COc1cc(-c2cnn(C3CN(CC4CN(C(=O)/C=C/CN5CCCCC5)C4)C3)c2)cn2ncc(C#N)c12 [Example 149, (E)-4-methoxy-6-(1-(1-((1-(4-(piperidin-1-yl)but-2-enoyl)azetidin-3-yl)methyl)azetidin-3-yl)-1H-pyrazol-4-yl)pyrazolo[1,5-a]pyridine-3-carbonitrile] | 229 nM | 33 nM | 39 nM | 6 nM | 4 nM | 0.00121 min⁻¹ | 0.00455 min⁻¹ |  |
| C=CC(=O)NC1CCN(C(=O)c2ccc(-c3cc(OC)c4c(C#N)cnn4c3)cc2)CC1 [Example 165, N-(1-(4-(3-cyano-4-methoxypyrazolo [1,5-a]pyridin-6-yl)benzoyl)piperidin-4-yl)acrylamide] | 800 nM | 223 nM | 62 nM | 18 nM | 15 nM | 0.00005 min⁻¹ | 0.0002 min⁻¹ |  |
| C=CC(=O)N1CCC(NC(=O)c2ccc(-c3cc(OC)c4c(C#N)cnn4c3)cc2)CC1 [Example 166, N-(1-acryloylpiperidin-4-yl)-4-(3-cyano-4-methoxypyrazolo [1,5-a]pyridin-6-yl)benzamide] | 129 nM | 48 nM | 61 nM | 15 nM | 14 nM | 0.00032 min⁻¹ | 0.00177 min⁻¹ |  |
| C=CC(=O)NC1CCC(NC(=O)c2ccc(-c3cc(OC)c4c(C#N)cnn4c3)cc2)CC1 (stereo not drawn) [Example 167, N-(4-acrylamido-cyclohexyl)-4-(3-cyano-4-methoxypyrazolo [1,5-a]pyridin-6-yl)benzamide] | 1120 nM | 192 nM | 68 nM | 18 nM | 17 nM | 0.00004 min⁻¹ | 0.00039 min⁻¹ |  |
| C=CS(=O)(=O)N[C@H]1C[C@@H](C(=O)N2CCC(n3cc(-c4cc(OC)c5c(C#N)cnn5c4)cn3)CC2)C1 [Example 193, N-((1s,3s)-3-(4-(4-(3-cyano-4-methoxypyrazolo[1,5-a]pyridin-6-yl)-1H-pyrazol-1-yl)piperidine-1-carbonyl)cyclobutyl) ethenesulfonamide] |  |  |  |  |  |  |  | 328 nM |
| C=CS(=O)(=O)N[C@H]1C[C@H](C(=O)N2CCC(n3cc(-c4cc(OC)c5c(C#N)cnn5c4)cn3)CC2)C1 [Example 194, N-((1r,3r)-3-(4-(4-(3-cyano-4-methoxypyrazolo[1,5-a]pyridin-6-yl)-1H-pyrazol-1-yl)piperidine-1-carbonyl)cyclobutyl) ethenesulfonamide] |  |  |  |  |  |  |  | 401 nM |
